The values that follow come from patent publication US20210275516A1, “LACTATE ENHANCING COMPOUNDS AND USES THEREOF” (ECOLE POLYTECHNIQUE FEDERALE DE LAUSANNE (EPFL), priority 2018, published 2021).

Assay [1] concerns primary astrocytes. Kind of assay: MTT mitochondrial activity assay in astrocytes. The class given is cell-based, mouse. Particulars: 24 h, maximum concentration (200 μM). Here is the method: Primary cultures of cerebrocortical astrocytes were obtained from 1 to 2-day-old OF1 mouse pups (Charles River). Briefly, cortices were isolated and minced in small pieces under a dissecting microscope. The cells were incubated for 30 min at 37° C. in a solution containing 20 U/ml papain, 1 mM L-cysteine and 10 kU/ml DNase I. After dissociation, papain activity was stopped by the addition of fetal calf serum (FCS). Single-cell suspension was then obtained by mechanical dissociation, which consisted in cells trituration in a DMEM D7777 medium supplemented with 44 mm NaHCO3, 10 ml/L antibiotic/antimycotic solution and 10% FCS. The cells were seeded at an average density of 6×10^4 cells/cm^2 on poly-D-lysine-coated 96- or 12-well culture plates, depending on their use, and grown in DMEM D7777 medium supplemented with 44 mm NaHCO3, 10 ml/L antibiotic/antimycotic solution and 10% FCS at 37° C. in a humidified atmosphere containing 5% CO2/95% air. Culture medium was renewed twice a week. Cells were stimulated and harvested between DIV14 and DIV17, when confluence and cell growth were optimal.
To monitor mitochondrial activity in astrocytes, which is linked to the metabolic process of glycolysis and production of lactate, astrocytes in 96-well plates were stimulated for 24 h (37° C. 5% CO2/95% air) with the compounds of the invention ranging from 0.2 to 200 μM. After stimulation, 5 mg/ml thiazol blue tetrazolium bromide (MTT) in D5030 medium complemented with 5 mM D-glucose and 44 mM sodium bicarbonate (pH 7.2) was added to each well, and cells were incubated for 4 h at 37° C. (5% CO2). The medium was then removed and the amount of reduced MTT, i.e formazan, solubilized in DMSO (50 μl/well) was determined using a spectrophotometer (absorbance of 570 nm).
The mitochondrial activity in primary astrocytes treated with Compounds (2) to (4) at concentrations ranging from 1 nM to 200 μM. After 24 h, mitochondrial activity was monitored in MTT colorimetric assay as described above (FIG. 3).
(In general: Formazan colour is commonly taken as a measure of viable cells.)

The subject of assay [2] is cerebral extracellular levels of lactate. The assay is described as follows: In vivo pharmacodynamics - lactate biosensors. The arrangement: species or system mouse. The conditions noted are these: 3 h recording, freely moving mice, vs vehicle. As to the method:
(§1) For pharmacodynamics (FIG. 4) and cognition (FIG. 6) experiments, adult male C57Bl/6J wild-type mice weighting 18-28 g (8 weeks of age) were used (Charles River). For ALS mouse models (FIG. 5), G93A SOD1 transgenic male and female mice on B6.SJL1-Gur/J background were used (Jackson Laboratory).
(§2) Animals were housed in groups of 3-5 in polypropylene cages (30×40×15 cm) with wire mesh top in a temperature (22±2° C.) and humidity (55±15%) controlled environment on a 12 hour light cycle (07.00-19.00 h lights on), except after surgeries when animal were housed individually. […]
Cerebral extracellular levels of lactate were monitored in vivo using lactate biosensors (Pinnacle Technology), according to the manufacturer's instructions. […] After surgery, mice were monitored closely and received analgesic treatment for at least 4 days. […] Concentrations of cerebral extracellular lactate were calculated from lactate probe electric signals using post-calibration values. […] Area Under the Curve (AUC) of lactate concentration curves were calculated using Graphad Prism and the ratio of AUC after drug over Vehicle administration was calculated.

Assay [3] has as its system G93A SOD1 mouse model of ALS. Kind of assay: SOD1 G93A mouse ALS model - grip test. The class given is in vivo. Particulars: vs vehicle. Here is the method: as §1, §2
(§3) Transgenic mice on B6.SJL1-Gur/J background overexpressing the human mutated gene G93A SOD1 were used. […] F1 pups were genotyped after ear punching at weaning, using quantitative PCR (qPCR), which allowed determining the number of SOD1 copies in each mouse.
(§4) To test for the potential therapeutic effect of the administered compound, SOD1 mice were given orally the compound of the invention (10 mg/kg) or vehicle every day from post-natal day 30 (weaning) throughout their entire life. […] Each mouse's weight was recorded every day throughout the entire treatment, while neuromuscular function was measured once a week. […]

Assay [4] deals with primary astrocytes. Kind of assay: Intracellular glycogen quantification in astrocytes. The class given is cell-based, mouse. The conditions noted are these: 10 μM, 3 h, vs vehicle. As to the method: (§5) Primary cultures of cerebrocortical astrocytes were obtained from 1 to 2-day-old OF1 mouse pups (Charles River). Briefly, cortices were isolated and minced in small pieces under a dissecting microscope. The cells were incubated for 30 min at 37° C. in a solution containing 20 U/ml papain, 1 mM L-cysteine and 10 kU/ml DNase I. After dissociation, papain activity was stopped by the addition of fetal calf serum (FCS). Single-cell suspension was then obtained by mechanical dissociation, which consisted in cells trituration in a DMEM D7777 medium supplemented with 44 mm NaHCO3, 10 ml/L antibiotic/antimycotic solution and 10% FCS. […]
Astrocytes grown on 12-well plates were used for intracellular glycogen quantifications. […]
First, the amount of proteins in each sample was quantified to assess whether harvested astrocytes from primary cell cultures yielded enough and equivalent amounts of proteins on each replicates. Proteins were quantified using the micro BCA Protein Assay kit (Thermo Scientific), according to manufacturer's instructions. Next, intracellular glycogen concentrations were quantified using a 250 μl-aliquot of the same stimulated, thawed, and sonicated cell lysate. […] Fluorescence intensity (340 nm excitation/440 nm emission) was measured using a Safire 2 spectrophotometer. […]

In assay [5] the test system is G93A SOD1 mouse model of ALS. The assay is described as follows: SOD1 G93A mouse ALS model - survival. The class given is in vivo. Particulars: 10 mg/kg orally every day from post-natal day 30 to final stage, G93A SOD1 mice, vs vehicle. As to the method:
as §1, §2, §3, §4

Assay [6] deals with primary cultures of cerebrocortical astrocytes. The assay is described as follows: Extracellular lactate quantification (lactate release from primary astrocytes). The conditions noted are these: primary mouse astrocytes, 90 min. The class given is cell-based. As to the method: as §5
Secretion of L-lactate was measured in the extracellular medium of 96-well plated astrocytes after 90 min stimulation (at 37° C., in 5% CO2/95% air conditions) with Vehicle (DMSO), the compounds of the invention (100 nM to 100 μM) or positive control. […] To quantify lactate concentrations in the extracellular medium, 200 μl of a 0.2M Glycine-semicarbazide buffer (pH 10) containing 3 mM NAD and 14 U/ml LDH was added to each well of a 96-well plate containing 30 μl aliquots of extracellular medium. […] Fluorescence intensity (340 nm excitation/450 nm emission), which represents the amount of NADH produced, was measured, and lactate concentration values were determined relative to a standard curve of L-lactate concentrations. […]

The test system of the next assay is C57Bl/6 wild-type mice. Kind of assay: Long-term memory test - inhibitory avoidance (IA). The class given is in vivo, mouse. Particulars: 100 mg/kg oral single dose 20 min before training. As to the method: as §1
Animals were housed in groups of 3-5 in polypropylene cages (30×40×15 cm) with wire mesh top in a temperature (22±2° C.) and humidity (55±15%) controlled environment on a 12 hour light cycle (07.00-19.00 h lights on), except after surgeries when animal were housed individually. The samples (Vehicle or compounds of the invention) were administered per os (gavage) in a solution made of water supplemented with 0.4% hydroxypropyl methylcellulose (HPMC) Methocel 4KM (w/v) and 0.25% Tween-20 (v/v), as previously described (Thackaberry et al., 2010, Toxicol Sci., 117(2):485-92). Concentrations of the compounds tested ranged from 10 to 100 mg/kg.
IA test is a well-established memory paradigm in rodents that measures contextual memory associated with a mild electrical footshock in a specific context (the dark compartment of the IA chamber). Groups of 8-week old C57Bl/6 wild-type […] mice were tested. Each mouse was handled for 5 minutes per day for at least 4 consecutive days to reduce animal's stress due to experimenter's presence/manipulation during test days. Inhibitory avoidance was carried out in an IA chamber (MedAssociates) that consists in a rectangular Perspex box divided into a safe and a shock compartment separated by an automatically operated sliding door. The safe compartment is white and illuminated while the shock compartment is black and dark. Mice were trained for IA 20 min after oral administration of the drug or vehicle. During training, mice were placed into the safe compartment with their heads facing away from the door. […] Memory retention was measured at 24 h or 3 weeks after training by placing the mouse back into the lit compartment and recording its latency (in seconds) to enter the dark compartment. […]

On to `COc1cc2ccnc(Nc3ccc(C(F)(F)F)cc3)c2cc1OC` [Compound 2, 6,7-dimethoxy-N-(4-(trifluoromethyl)phenyl)isoquinolin-1-amine], for which the “Remaining mitochondrial activity at maximum concentration compared to vehicle” value in the assay with primary astrocytes [1] is listed as 7.86%.

As for `FC(F)(F)Oc1ccc(Nc2nccc3ccccc23)cc1` [Compound 3, N-(4-(trifluoromethoxy)phenyl)isoquinolin-1-amine], the “Remaining mitochondrial activity at maximum concentration compared to vehicle” value in the assay on primary astrocytes [1] is reported as 35.9%.

Consider `COc1cc2ccnc(Cc3ccc(OC(F)(F)F)cc3)c2cc1OC` [Compound 4, 6,7-dimethoxy-1-(4-(trifluoromethoxy)benzyl)isoquinoline], for which, in the assay with primary astrocytes [1], the “Remaining mitochondrial activity at maximum concentration compared to vehicle” value is on record as 77.3%.

Regarding `COc1cc2ccnc(Nc3ccc(OC(F)(F)F)cc3)c2cc1OC` [Compound 1, 6,7-dimethoxy-N-(4-(trifluoromethoxy)phenyl)isoquinolin-1-amine], in assay [2] (10 mg/kg per os), the “Extracellular lactate levels in the brain” value is on record as “significantly increases extracellular lactate levels”. The “Extracellular lactate levels in the brain” value in assay [2] (100 mg/kg per os) is “significantly increases extracellular lactate levels”. In addition, the “Remaining mitochondrial activity at maximum concentration compared to vehicle” value with primary astrocytes [1] is reported as 8.05%. Moreover, the “Onset of symptoms (grip test)” value in assay [3] (10 mg/kg orally every day from post-natal day 30, G93A SOD1 mice) was “delayed the onset of the symptoms”. For the same molecule, in assay [3] (10 mg/kg orally every day from post-natal day 30, measured weekly until 16 weeks of age), the “Muscle function (grip test)” value is given as “remained significantly improved”. Further, the “Degradation of intracellular glycogen” value with primary astrocytes [4] was “significantly enhances the degradation of intracellular glycogen”. Also, the “Life span (Kaplan-Meier survival)” value in assay [5] is “significantly increased life span”. Further, the “Concentration at which the effect on lactate release is already significant” value in assay [6] is given as “below 1 μM”. Moreover, the “Latency to enter the dark compartment at training” value in the assay on C57Bl/6 wild-type mice was “same latencies at training”. Also, in the assay on C57Bl/6 wild-type mice (vs vehicle), the “Latency to enter the dark compartment, 3 weeks after training” value is given as “significantly higher” and the “Latency to enter the dark compartment, 24 h after training” value is “significantly higher”.
